Assay results: paper PMC6650905, “Development of a Novel Series of Anticancer and Antidiabetic: Spirothiazolidines Analogs” (Molecules, 2019)

Tests used:
[1] = molecular target: T1, alpha-glucosidase (Saccharomyces cerevisiae); assay: p-nitrophenol release, absorbance […] nm; assay type: biochemical; settings: p-nitrophenyl alpha-D-glucopyranoside 5 mM stock (20 μL), 100 mM phosphate pH 6.8, 37 °C, 15 min preincubation
T1 construct: gene MAL12; commercial preparation from Sigma-Aldrich

[2] = molecular target: T2, alpha-amylase (α–amylase); assay: DNS colorimetric assay; assay type: biochemical; settings: starch 0.5%, 20 mM phosphate pH 6.9, 25 °C, 10 min preincubation
T2 construct: commercial preparation from Sigma-Aldrich

Nc1ccc(N2C(=O)C(=Cc3ccc(Cl)cc3)SC23CCCCC3)cc1 [compound 8, 4-(4-aminophenyl)-2-(4-chlorobenzylidene)-1-thia-4-azaspiro[4.5]decan-3-one]
** IC50 [1]: 114.45 µg/mL
** IC50 [2]: 199.01 µg/mL

Nc1ccc(N2C(=O)CSC23CCCCC3)cc1 [compound 1, 4-(4-aminophenyl)-1-thia-4-azaspiro[4.5]decan-3-one]
** IC50 [1]: 120.22 µg/mL
** IC50 [2]: 297.8 µg/mL

NN=C1CSC2(CCCCC2)N1c1ccc(N)cc1 [compound 2, 4-(3-hydrazono-1-thia-4-azaspiro[4.5]decan-4-yl)aniline]
** IC50 [1]: 363.67 µg/mL
** IC50 [2]: 421.42 µg/mL

Nc1ccc(N2c3[nH]nc(-c4ccc(Cl)cc4)c3SC23CCCCC3)cc1 [compound 9, 4-(3′-(4-chlorophenyl)-spiro[cyclohexane-1,5′-pyrazolo[3,4-d]thiazol]-6′ (1′H)-yl)aniline]
** IC50 [1]: 52.47 µg/mL
** IC50 [2]: 58.85 µg/mL

N#Cc1c(N)nc2c(c1-c1ccc(Cl)cc1)SC1(CCCCC1)N2c1ccc(N)cc1 [compound 6, 5′-amino-3′-(4-aminophenyl)-7′-(4-chlorophenyl)-3′H-spiro[cyclohexane-1,2′-thiazolo[4,5-b]pyridine]-6′-carbonitrile]
** IC50 [1]: 63.6 µg/mL
** IC50 [2]: 94.9 µg/mL

N#Cc1c(-c2ccc(Cl)cc2)c2c(n(CCO)c1=O)N(c1ccc(N)cc1)C1(CCCCC1)S2 [compound 13, 3′-(4-aminophenyl)-7′-(4-chlorophenyl)-4′-(2-hydroxyethyl)-5′-oxo-4′,5′-dihydro-3′H-spiro[cyclohexane-1,2′-thiazolo[4,5-b]pyridine]-6′-carbonitrile]
** IC50 [1]: 118.11 µg/mL
** IC50 [2]: 271.3 µg/mL

N#Cc1c(-c2ccc(Cl)cc2)c2c([nH]c1=O)N(c1ccc(N)cc1)C1(CCCCC1)S2 [compound 7, 3′-(4-aminophenyl)-7′-(4-chlorophenyl)-5′-oxo-4′,5′-dihydro-3′H-spiro[cyclohexane-1,2′-thiazolo[4,5-b]pyridine]-6′-carbonitrile]
** IC50 [1]: 117.36 µg/mL
** IC50 [2]: 239.37 µg/mL

CCOC(=O)Cn1c2c(c(-c3ccc(Cl)cc3)c(C#N)c1=O)SC1(CCCCC1)N2c1ccc(N)cc1 [compound 16, Ethyl 2-(3′-(4-aminophenyl)-7′-(4-chlorophenyl)-6′-cyano-5′-oxo-3′,5′-dihydro-4′H-spiro [cyclohexane-1,2′-thiazolo[4,5-b]pyridin]-4′-yl)acetate]
** IC50 [1]: 570.4 µg/mL
** IC50 [2]: > 1000 µg/mL
